Where two headings read alike, the source gives them in different places.
What was measured:
tubulin = assay: In vitro tubulin polymerisation assay; format: biochemical
Procedure: To investigate the effect of compounds 4k and 5a on microtubule system, their tubulin polymerisation inhibition activities were evaluated using in vitro tubulin polymerisation assay.
The BK001 kit used in this test was purchased from Cytoskeleton Inc. (Denver, CO, USA). […] Then the mixtures were transferred to 37 °C and tubulin assembly was monitored (excitation wavelength: 360 nm; emission wavelength: 420 nm) at 1 min intervals for 90 min by a microplate reader.

PC-3 cells [1] = assay: Cell apoptosis analysis, Annexin V-FITC/PI flow cytometry; format: cell-based, human; settings: 48 h
Procedure: To investigate the effect of 4k and 5a on cell apoptosis, flow cytometry was used to analyse the cell apoptosis of PC-3 cells. […] Early apoptosis cells could only be stained by Annexin V-FITC, while late apoptosis cells could be stained by both Annexin V-FITC and PI.
PC-3 cells in logarithmic phase were harvested and seeded onto 6-well cell plates at a density of 2.5 × 10^5 cells per well, and were cultured for 24 h. […] The cells were digested using trypsin and were harvested, washed twice with PBS, and resuspended in 500 μL binding buffer, followed by the addition of 100 μL of the cell suspension to 5 μL of Annexin V-FITC and 5 μL of PI. After stained for 15 min in a dark at room temperature, the samples were added 400 μL of binding buffer and detected by FACScan flow cytometry (BectoneDickinson, Franklin Lakes, NJ, USA).

PC-3 cells [2] = assay: Colony formation assay; format: cell-based, human; settings: PC-3, 20 nM, 24 h treatment then one week culture
Description: Colony formation assay was selected to assess the effect of 4k and 5a on clonogenic formation of PC-3 cells.
PC-3 cells in logarithmic phase were harvested and seeded onto 12-well cell plates at a density of 1 × 10^3 cells per well. […] Then the medium was removed, and cells were washed with PBS and added fresh medium containing 10% FBS. The cells were continued to culture for one week. The medium was removed, and the cells were fixed with 4% paraformaldehyde and subsequently stained with crystal violet solution. Images were taken and analysed by Fiji/ImageJ software.

PC-3 cells [3] = assay: MTT antiproliferative assay, PC-3; format: cell-based; settings: Homo sapiens, 72 h drug exposure, read-out: IC50 (μM) ± SD PC-3
Procedure: All cell lines tested in this study were purchased from the American Type Culture Collection (ATCC, Manassas, VA). SGC-7901 (human gastric adenocarcinoma), HCT-116 (human colon carcinoma), and A549 (human pulmonary carcinoma) cells were cultured in RPMI-1640 medium containing 10% foetal serum (FBS) and 1% penicillin-streptomycin solution (100×). MCF-7 (human breast carcinoma) cells were cultured in DMEM medium containing 10% foetal serum (FBS) and 1% penicillin-streptomycin solution (100×). PC-3 (human prostate carcinoma) cells were cultured in Ham’s F-12K medium containing 10% foetal serum (FBS) and 1% penicillin-streptomycin solution (100×). All cells were cultured at 37 °C in a humidified atmosphere containing 5% CO2.
(§1) Cells grown in logarithmic phase were harvested and seeded onto 96-well cell plates at a density of 4 ∼ 5 × 10^3 cells per well (various from cell type) and were cultured for 24 h. Different concentrations of compounds were added into the wells, and the cells were cultured for another 72 h. The medium was removed, then 20 μL of MTT (5 mg/mL in PBS) was added to each well and the cells were incubated for 4 h. 150 μL of DMSO was added to each well to dissolve the formazan, and the absorbance at 490 nm of each well was measured by a microplate reader. IC50 values were calculated by SPSS software.

[4] = system: microtubule network in PC-3 cells; assay: Immunofluorescence assay of microtubule network; format: cell-based, human; settings: 50 nM, 24 h
Procedure: To evaluate the effects of 4k and 5a on intracellular microtubule, immunofluorescence assay was carried out to observe the changes of microtubule network in cell.
PC-3 cells in logarithmic phase were harvested and seeded onto 12-well cell plates with round coverslip on the bottom of each well at a density of 3 × 10^4 cells per well, and were cultured for 24 h. […] The medium was removed, and cells were washed with PBS twice, fixed with 4% formaldehyde in PBS for 30 min, then the solution was removed. Cells were washed with PBS twice, permeabilized with 0.2% (v/v) Triton X-100 in PBS for 30 min, then the solution was removed. Cells were washed with PBS twice, blocking the cells in 5% bovine serum albumin (BSA) for 30 min. Then BSA was removed, and cells were incubated with the primary α-tubulin antibody (Santa Cruz, CA) containing 2% BSA (v/v, 1: 100) overnight at 4 °C.
The following steps were operated in dark environment. The antibody was removed, then cells were washed with PBST twice and were added FITC-conjugated anti-mouse secondary antibody diluted (1:100) with 2% BSA in PBS and incubated at room temperature for 4 h. The cells were then washed with PBST twice, stained with 4′,6-diamidino-2-phenylindole (DAPI) for 30 min at room temperature, and washed with PBS twice. The round coverslips at the bottom of wells were taken out, and the images were photographed by a confocal microscope.

human liver cells (L02) = assay: MTT toxicity assay, normal cells L02; format: cell-based; settings: for IC50: Homo sapiens, read-out: IC50 (μM) ± SD L02; for SI-L: SI-L = IC50 (L02)/IC50 (PC-3)
Procedure: The toxicity of compounds 4k and 5a was also tested by using human umbilical vein endothelial cells (HUVEC) and human liver cells (L02).
as §1

PC-3 cell line = assay: MTT cell viability after 24 h; format: cell-based; settings: Homo sapiens, read-out: cell viability
Procedure: An MTT assay was made on PC-3 cell line to test the cell viability after treated with different concentrations of compounds 4k and 5a after 24 h which was the same period as immunofluorescence assay.

PC-3 cells [5] = assay: Transwell migration assay; format: cell-based, human; settings: 24 h, relative to untreated cells
Procedure: Transwell migration assay was used on PC-3 cells to further investigate the effect of 4k and 5a on cell migration.
PC-3 cells in logarithmic phase were harvested and seeded onto six-well cell plates at a density of 4 × 10^4 cells per well, and were cultured for 24 h. […] Then these cells were harvested and seeded onto the top chambers of transwell filters (Corning) at a concentration of 4 × 10^4 cells with 200 μL of FBS-free medium per well in 24-well culture plates, while the bottom chambers were added 600 μL of medium containing 10% FBS. The cells were cultured for additional 24 h, then the cells that migrated to the bottom of the top chambers were fixed with 4% paraformaldehyde and subsequently stained with crystal violet solution. Images were taken by an inverted microscope and analysed by Fiji/ImageJ software.

SMILES: COc1cc(C(=O)c2nn(-c3ccc(N)cc3)cc2N)cc(OC)c1OC [4k, (4-amino-1–(4-aminophenyl)-1H-pyrazol-3-yl)(3,4,5-trimethoxyphenyl)methanone]
- effect on tubulin polymerisation (fluorescence intensity) (tubulin; 5 μM and 10 μM): inhibition of tubulin polymerisation
- tubulin polymerisation inhibitory potency compared with colchicine (3 μM) (tubulin; 5 μM and 10 μM): higher potency than colchicine
- percentage of apoptosis cells (PC-3 cells [1]; PC-3, 10 nM, vehicle 18.3%): 27.1%
- percentage of apoptosis cells (PC-3 cells [1]; PC-3, 25 nM, vehicle 18.3%): 34.1%
- colony formation compared to control (PC-3 cells [2]): 5.7%
- IC50 (PC-3 cells [3]): 0.015 ± 0.004 µM
- effect on microtubule network [4]: microtubule network was destroyed
- IC50 (human liver cells (L02); 72 h drug exposure, MTT assay, normal cells): 0.025 ± 0.008 µM
- SI-L (human liver cells (L02)): 1.713
- viability at 0.00051 µM (PC-3 cell line; PC-3, MTT, 24 h, 0.51 nM): 91.6%
- viability at 1.111 µM (PC-3 cell line; PC-3, MTT, 24 h, 1111 nM): 41.6%
- percentage of migrated cells (PC-3 cells [5]; PC-3, 5 nM): 60.4%
- percentage of migrated cells (PC-3 cells [5]; PC-3, 10 nM): 25.7%
- percentage of migrated cells (PC-3 cells [5]; PC-3, 20 nM): 18.7%

SMILES: COc1cc(C2=NCC(=O)Nc3cn(-c4ccccc4)nc32)cc(OC)c1OC [5a, 2-Phenyl-8–(3,4,5-trimethoxyphenyl)-2,6-dihydropyrazolo[4,3-e][1,4]diazepin-5(4H)-one]
- effect on tubulin polymerisation (fluorescence intensity) (tubulin; 10 μM and 20 μM): inhibition of tubulin polymerisation
- tubulin polymerisation inhibitory potency compared with colchicine (3 μM) (tubulin; 20 μM): superior inhibitory potency compared to colchicine
- percentage of apoptosis cells (PC-3 cells [1]; PC-3, 100 nM, vehicle 18.2%): 26.6%
- percentage of apoptosis cells (PC-3 cells [1]; PC-3, 200 nM, vehicle 18.2%): 41.5%
- colony formation compared to control (PC-3 cells [2]): 34.9%
- IC50 (PC-3 cells [3]): 0.006 ± 0.002 µM
- effect on microtubule network [4]: microtubule network was destroyed
- IC50 (human liver cells (L02); 72 h): 0.204 ± 0.056 µM
- SI-L (human liver cells (L02)): 35.00
- viability at 0.00051 µM (PC-3 cell line; PC-3, 24 h): 76.6%
- viability at 1.111 µM (PC-3 cell line; PC-3, 24 h): 39.6%
- percentage of migrated cells (PC-3 cells [5]; PC-3, 5 nM): 53.6%
- percentage of migrated cells (PC-3 cells [5]; PC-3, 10 nM): 49.1%
- percentage of migrated cells (PC-3 cells [5]; PC-3, 20 nM): 27.8%

Source: paper PMC12459184, “Design, synthesis, and bioevaluation of pyrazole-containing tubulin polymerisation inhibitors based on conformational constraint strategy” (Journal of Enzyme Inhibition and Medicinal Chemistry, 2025)
